Experimental data taken from publication PMC13476077, “Systematic comparison of temporal hepatotoxicant-induced gene network responses across 3 liver test systems” (Toxicological Sciences, 2026).

Test: Pharmacokinetic properties from the literature
Format: in vivo
Conditions: Minimal PBPK model; Derived using WinNonLin, ref Huang et al. (1986)
Text: Compound-specific physicochemical properties (e.g., pKa, fraction unbound in plasma, etc.) are detailed in Table S1B and were used to parameterize each model.

CC(=O)N1CCN(c2ccc(OCC3COC(Cn4ccnc4)(c4ccc(Cl)cc4Cl)O3)cc2)CC1 (stereo not shown) [Ketoconazole]
Vss: 0.345 L/kg
